PubChem BioAssay AID2060485 (Molecular Pharmacology Branch, DTP, NCI, 2025)

System: A375 multi-cell spheroids with HUVEC/MSC, viability
Test: Anticancer human tumor A375 cell line growth inhibition [GQUAD];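 note: spheroids exposed to compounds for seven days before readout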
Conditions: for IC50: curve of first compound; for viability, T/C: stronger effect = lower value
Method in brief: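 Viability of tumor cells grown as complex spheroids with endothelial and stromal cells, exposed to drug combinations. Top concentration at or near clinical Cmax (else 10 microM), diluted in half-log increments.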

[1] = second compound 0.0316 µM, first compound 0.0316 µM
[2] = second compound 0.0316 µM, first compound 0.316 µM
[3] = second compound 0.1 µM, first compound 0.0316 µM
[4] = second compound 0.1 µM, first compound 0.316 µM
[5] = second compound 0.316 µM, first compound 0.0316 µM
[6] = second compound 0.316 µM, first compound 0.316 µM
[7] = second compound 1 µM, first compound 0.0316 µM
[8] = second compound 1 µM, first compound 0.316 µM
[9] = second compound 3.16 µM, first compound 0.0316 µM
[10] = second compound 3.16 µM, first compound 0.316 µM
[11] = second compound 10 µM, first compound 0.0316 µM
[12] = second compound 10 µM, first compound 0.316 µM
[13] = second compound 0.0316 µM, first compound 0.000999 µM
[14] = second compound 0.0316 µM, first compound 0.00316 µM
[15] = second compound 0.0316 µM, first compound 0.00999 µM
[16] = second compound 0.0316 µM, first compound 0.0999 µM
[17] = second compound 0.1 µM, first compound 0.000999 µM
[18] = second compound 0.1 µM, first compound 0.00316 µM
[19] = second compound 0.1 µM, first compound 0.00999 µM
[20] = second compound 0.1 µM, first compound 0.0999 µM
[21] = second compound 0.316 µM, first compound 0.000999 µM
[22] = second compound 0.316 µM, first compound 0.00316 µM
[23] = second compound 0.316 µM, first compound 0.00999 µM
[24] = second compound 0.316 µM, first compound 0.0999 µM
[25] = second compound 1 µM, first compound 0.000999 µM
[26] = second compound 1 µM, first compound 0.00316 µM
[27] = second compound 1 µM, first compound 0.00999 µM
[28] = second compound 1 µM, first compound 0.0999 µM
[29] = second compound 3.16 µM, first compound 0.000999 µM
[30] = second compound 3.16 µM, first compound 0.00316 µM
[31] = second compound 3.16 µM, first compound 0.00999 µM
[32] = second compound 3.16 µM, first compound 0.0999 µM
[33] = second compound 10 µM, first compound 0.000999 µM
[34] = second compound 10 µM, first compound 0.00316 µM
[35] = second compound 10 µM, first compound 0.00999 µM
[36] = second compound 10 µM, first compound 0.0999 µM

C=CC(=O)N1CCN(c2nc(=O)n(-c3c(C)ccnc3C(C)C)c3nc(-c4c(O)cccc4F)c(F)cc23)C(C)C1 (stereo unspecified) + Cc1[nH]c2ccc(F)cc2c1-c1nc2c3cccnc3c3ncccc3c2[nH]1 was tested, and the IC50 (second compound 0.0316 µM) was > 10000 nM, the IC50 (second compound 0.1 µM) was > 10000 nM and the IC50 (second compound 0.316 µM) was > 10000 nM. The IC50 (second compound 1 µM) was > 10000 nM, the IC50 (second compound 3.16 µM) was > 10000 nM and the IC50 (second compound 10 µM) was > 10000 nM. The viability, T/C [1] was 101%, the viability, T/C (second compound 0.0316 µM, first compound 0.1 µM) was 102% and the viability, T/C [2] was 96.6%. The viability, T/C (second compound 0.0316 µM, first compound 1 µM) was 94.5%, the viability, T/C (second compound 0.0316 µM, first compound 3.16 µM) was 111% and the viability, T/C (second compound 0.0316 µM, first compound 10 µM) was 135%. For the same molecule, the viability, T/C [3] was 116%, the viability, T/C (second compound 0.1 µM, first compound 0.1 µM) was 97.8% and the viability, T/C [4] was 103%. For the same molecule, the viability, T/C (second compound 0.1 µM, first compound 1 µM) was 93.3%, the viability, T/C (second compound 0.1 µM, first compound 3.16 µM) was 140% and the viability, T/C (second compound 0.1 µM, first compound 10 µM) was 149%. For the same molecule, the viability, T/C [5] was 99%, the viability, T/C (second compound 0.316 µM, first compound 0.1 µM) was 102% and the viability, T/C [6] was 105%. It also gave a viability, T/C (second compound 0.316 µM, first compound 1 µM) of 113%, a viability, T/C (second compound 0.316 µM, first compound 3.16 µM) of 152% and a viability, T/C (second compound 0.316 µM, first compound 10 µM) of 150%. It also gave a viability, T/C [7] of 99.1%, a viability, T/C (second compound 1 µM, first compound 0.1 µM) of 103% and a viability, T/C [8] of 110%. The viability, T/C (second compound 1 µM, first compound 1 µM) was 120%, the viability, T/C (second compound 1 µM, first compound 3.16 µM) was 161% and the viability, T/C (second compound 1 µM, first compound 10 µM) was 141%. For the same molecule, the viability, T/C [9] was 94.2%, the viability, T/C (second compound 3.16 µM, first compound 0.1 µM) was 95.5% and the viability, T/C [10] was 104%. The viability, T/C (second compound 3.16 µM, first compound 1 µM) was 93.6%, the viability, T/C (second compound 3.16 µM, first compound 3.16 µM) was 104% and the viability, T/C (second compound 3.16 µM, first compound 10 µM) was 52.9%. It also gave a viability, T/C [11] of 108%, a viability, T/C (second compound 10 µM, first compound 0.1 µM) of 99% and a viability, T/C [12] of 116%. It also gave a viability, T/C (second compound 10 µM, first compound 1 µM) of 96.3%, a viability, T/C (second compound 10 µM, first compound 3.16 µM) of 121% and a viability, T/C (second compound 10 µM, first compound 10 µM) of 79.8%.
CC[C@@]1(O)C(=O)OCc2c1cc1n(c2=O)Cc2cc3c(CN(C)C)c(O)ccc3nc2-1 + Cc1[nH]c2ccc(F)cc2c1-c1nc2c3cccnc3c3ncccc3c2[nH]1 showed an IC50 (second compound 0.0316 µM) of 52.8 nM, an IC50 (second compound 0.1 µM) of 53.8 nM and an IC50 (second compound 0.316 µM) of 52.4 nM. It also gave an IC50 (second compound 1 µM) of 46.9 nM, an IC50 (second compound 3.16 µM) of 38.4 nM and an IC50 (second compound 10 µM) of 46.1 nM. It also gave a viability, T/C [13] of 109%, a viability, T/C [14] of 110% and a viability, T/C [15] of 109%. The viability, T/C [1] was 71.6%, the viability, T/C [16] was 23.4% and the viability, T/C [2] was 12.9%. The viability, T/C [17] was 98.5%, the viability, T/C [18] was 105% and the viability, T/C [19] was 111%. For the same molecule, the viability, T/C [3] was 73.3%, the viability, T/C [20] was 23.7% and the viability, T/C [4] was 14%. For the same molecule, the viability, T/C [21] was 109%, the viability, T/C [22] was 108% and the viability, T/C [23] was 114%. The viability, T/C [5] was 69.9%, the viability, T/C [24] was 25.9% and the viability, T/C [6] was 13.6%. It also gave a viability, T/C [25] of 118%, a viability, T/C [26] of 107% and a viability, T/C [27] of 125%. For the same molecule, the viability, T/C [7] was 65.4%, the viability, T/C [28] was 27.4% and the viability, T/C [8] was 13.8%. For the same molecule, the viability, T/C [29] was 92.7%, the viability, T/C [30] was 88.1% and the viability, T/C [31] was 86.4%. For the same molecule, the viability, T/C [9] was 51.6%, the viability, T/C [32] was 30.7% and the viability, T/C [10] was 16.3%. For the same molecule, the viability, T/C [33] was 92.2%, the viability, T/C [34] was 101% and the viability, T/C [35] was 105%. For the same molecule, the viability, T/C [11] was 62.9%, the viability, T/C [36] was 26.1% and the viability, T/C [12] was 14.6%.
CCc1c2c(nc3ccc(O)cc13)-c1cc3c(c(=O)n1C2)COC(=O)[C@]3(O)CC + Cc1[nH]c2ccc(F)cc2c1-c1nc2c3cccnc3c3ncccc3c2[nH]1 was tested, and the IC50 (second compound 0.0316 µM) was < 0.999 nM, the IC50 (second compound 0.1 µM) was < 0.999 nM and the IC50 (second compound 0.316 µM) was < 0.999 nM. For the same molecule, the IC50 (second compound 1 µM) was < 0.999 nM, the IC50 (second compound 3.16 µM) was < 0.999 nM and the IC50 (second compound 10 µM) was < 0.999 nM. For the same molecule, the viability, T/C [13] was 46%, the viability, T/C [14] was 20% and the viability, T/C [15] was 16.8%. For the same molecule, the viability, T/C [1] was 19.7%, the viability, T/C [16] was 4.81% and the viability, T/C [2] was 0.52%. For the same molecule, the viability, T/C [17] was 50.3%, the viability, T/C [18] was 20.4% and the viability, T/C [19] was 14.7%. For the same molecule, the viability, T/C [3] was 16.9%, the viability, T/C [20] was 5.44% and the viability, T/C [4] was 0.54%. It also gave a viability, T/C [21] of 47.8%, a viability, T/C [22] of 18.3% and a viability, T/C [23] of 15.2%. It also gave a viability, T/C [5] of 19.5%, a viability, T/C [24] of 5.75% and a viability, T/C [6] of 0.54%. The viability, T/C [25] was 41.1%, the viability, T/C [26] was 20.4% and the viability, T/C [27] was 18.4%. The viability, T/C [7] was 16.4%, the viability, T/C [28] was 5.26% and the viability, T/C [8] was 0.53%. It also gave a viability, T/C [29] of 32%, a viability, T/C [30] of 20.9% and a viability, T/C [31] of 17.6%. For the same molecule, the viability, T/C [9] was 11%, the viability, T/C [32] was 0.47% and the viability, T/C [10] was 0.17%. The viability, T/C [33] was 39.4%, the viability, T/C [34] was 17.6% and the viability, T/C [35] was 17.1%. It also gave a viability, T/C [11] of 14.1%, a viability, T/C [36] of 1.7% and a viability, T/C [12] of 0.25%.
